Results from PubChem BioAssay AID1320 (NMMLSC, 2008).
Activity calls are given as the source filed them. The rule behind the calls is not given here.

Each compound was assayed against Bcl-2-related protein A1 (Homo sapiens) (UniProt Q16548) (assay: Bfl-1/Bim complex disruptors – biochemical, multiplexed, bead-based flow cytometry, dose response (AID 1320; for percent span (inhibition): test concentration not given here)). Settings: Bim peptide-Bfl-1 binding, fluorescence.
Bcl-2-related protein A1 (Homo sapiens), sequence (Q16548 whole entry, looked up): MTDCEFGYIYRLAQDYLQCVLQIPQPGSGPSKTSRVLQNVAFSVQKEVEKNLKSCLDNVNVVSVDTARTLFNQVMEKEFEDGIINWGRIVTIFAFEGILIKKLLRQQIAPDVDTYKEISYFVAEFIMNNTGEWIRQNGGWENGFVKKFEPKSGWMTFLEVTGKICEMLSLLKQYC

Row | SMILES | EC50
1 | CCC(=O)N(CC)C1=C(O)c2ccccc2C(=O)C1=O | 80 nM
2 | O=C(C1=NN(c2ccccc2)C2C(=O)N(c3ccccc3)C(=O)C12)c1ccccc1 (stereo not drawn) | 1360 nM

Same assay, conditions: Bim peptide-Bfl-1 binding, fluorescence, stronger effect = higher value

Row | SMILES | percent span (inhibition)
3 | Cc1cc(C)cc(-n2c(C)nc3cc(C(=O)O)ccc32)c1 | inactive
4 | COP(=O)(CC(=O)O)c1ccccc1 (stereo not drawn) | inactive
5 | C#CCOCCOCCOCCNc1nc(N2CCN(C(=O)[C@H](CCCCN)n3cc(CCCC)nn3)CC2)nc(N2CCN(C(=O)[C@H](Cc3ccc(O)cc3)n3cc(CCO)nn3)CC2)n1 | inactive
6 | Cc1ccc(-n2nc(C)c(C(=O)O)n2)c(C)c1 | inactive
7 | O=C(O)C1=C[C@H](C2CC2)C[C@H](OCCCCO)O1 | inactive
8 | Cn1c(=O)[nH]c(=O)c2c1nc(N1CCOCC1)n2CCSc1nc2ccccc2[nH]1 | inactive
9 | Cc1ccc(-n2c(CSc3nc(C)cc(C)n3)nnc2SCC(=O)NCc2ccco2)cc1 | inactive
10 | CCN1/C(=C/c2ccc3cc(C)cc(C)c3[n+]2CC)Sc2cc(C)ccc21 | inactive
11 | CC(C(=O)Nc1cc([N+](=O)[O-])ccc1Cl)N1CCN(c2ccc(O)cc2)CC1 (stereo not drawn) | inactive
12 | O=c1[nH]c(SCc2nc3ccccc3c(=O)n2-c2ccccc2C(F)(F)F)nc2ccccc12 | inactive
13 | COc1ccc(S(=O)(=O)NCCOc2cccc3cccnc23)cc1OC | inactive
14 | Cc1ccc(C(=O)NNC(=O)c2ccc3ncccc3c2)cc1 | inactive
15 | Cc1cc[n+]2cc(-c3cccc([N+](=O)[O-])c3)c(-c3cccc([N+](=O)[O-])c3)cc2c1 | inactive
16 | Cc1ccc(-c2cc(C(=O)OCC(=O)N(C)C3CCS(=O)(=O)C3)c3ccccc3n2)o1 (stereo not drawn) | inactive
17 | NC(=O)c1c(NC(=O)C2CCCO2)sc2c1CCCCC2 (stereo not drawn) | inactive
18 | COc1ccc(COC(=O)NNC(=O)c2ccccc2Cl)cc1 | inactive

Row | SMILES | percent span (inhibition)
19 | Cc1ccc(C(=O)C(C(=O)/C=C/c2ccccc2)=C2SCCCS2)cc1 | inactive
20 | CN(C)[C@@H]1C(=O)C(C(=O)NCN2CCCC2)=C(O)[C@@]2(O)C(=O)C3=C(O)c4c(O)cccc4[C@@](C)(O)C3CC12 (stereo partly drawn) | inactive
21 | COc1ccc(NC(=O)COc2ncnc3ccccc23)cc1S(=O)(=O)N1CCOCC1 | inactive
22 | CC(C)CCN1CCN(Cc2cccc3cccnc23)CC1CCO (stereo not drawn) | inactive
23 | COc1ccc(NC(=O)c2sccc2SCc2cccc(C(F)(F)F)c2)cc1 | inactive
24 | Nc1ccc(Nc2nc(-c3ccncc3)cs2)cc1 | inactive
25 | Cc1ccc(-c2cc(C(=O)Nc3ccccn3)c3ccccc3n2)o1 | inactive
26 | CCc1nnc(NC(=O)CSc2nnc(COc3ccc(C)cc3)n2-c2ccccc2)s1 | inactive
27 | COc1ccc(/C=C2\SC(=O)NC2=S)cc1OC | inactive
28 | COc1cccc(/C=N/NC(=O)c2cc3cc([N+](=O)[O-])ccc3s2)c1O | inactive
29 | CC(=O)NC(=O)Nc1sc(=S)n(C)c1C | inactive
30 | O=C(NC1=C(Nc2ccc(F)cc2)C(=O)c2ccccc2C1=O)c1ccc(Cl)cc1 | inactive
31 | FC(F)(F)c1ccc2c(c1)C1C=CCC1C(c1ccncc1)N2 (stereo not drawn) | inactive
32 | CCOc1ccc(C(=O)Nc2nnc(NC(=S)Nc3ccccc3)s2)cc1 | inactive
33 | COc1ccc(N2CCN(C(=O)c3cc(=O)[nH]c4ccccc34)CC2)cc1 | inactive
